Test results taken from PMC5791972 (PLoS ONE, 2018).
Read-outs that look alike come from different tables or passages of the source.

Legend:
A3 (h) = molecular target: T1, A3 (h) (Homo sapiens, UniProt P0DMS8); assay type: binding; details: 1.0E-06 M
T1 construct: host or cells: HEK-293 cells
T1 sequence (P0DMS8 1-318): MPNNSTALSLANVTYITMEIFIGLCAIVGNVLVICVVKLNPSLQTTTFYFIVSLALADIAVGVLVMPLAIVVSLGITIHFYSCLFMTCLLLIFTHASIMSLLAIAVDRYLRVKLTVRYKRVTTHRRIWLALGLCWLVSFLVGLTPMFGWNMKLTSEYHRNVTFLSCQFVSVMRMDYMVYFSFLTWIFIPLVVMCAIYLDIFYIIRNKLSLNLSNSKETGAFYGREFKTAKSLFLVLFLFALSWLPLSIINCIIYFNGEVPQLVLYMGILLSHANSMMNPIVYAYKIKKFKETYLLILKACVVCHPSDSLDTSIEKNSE

α1 (non-selective) = assay type: binding, rat; details: 1.0E-06 M
CB2 (h) = molecular target: T2, CB2 (h) (Homo sapiens, UniProt P34972); assay type: binding; details: 1.0E-06 M
T2 construct: host or cells: CHO cells

MC3 (h) = molecular target: T3, MC3 (h) (Homo sapiens, UniProt P41968); assay type: binding
T3 construct: host or cells: CHO cells

[1] = molecular target: T4, choline transporter (CHT1) (h) (Homo sapiens, UniProt Q9GZV3); assay type: binding; details: 1.0E-06 M
T4 construct: host or cells: CHO cells
T4 sequence (Q9GZV3 1-580): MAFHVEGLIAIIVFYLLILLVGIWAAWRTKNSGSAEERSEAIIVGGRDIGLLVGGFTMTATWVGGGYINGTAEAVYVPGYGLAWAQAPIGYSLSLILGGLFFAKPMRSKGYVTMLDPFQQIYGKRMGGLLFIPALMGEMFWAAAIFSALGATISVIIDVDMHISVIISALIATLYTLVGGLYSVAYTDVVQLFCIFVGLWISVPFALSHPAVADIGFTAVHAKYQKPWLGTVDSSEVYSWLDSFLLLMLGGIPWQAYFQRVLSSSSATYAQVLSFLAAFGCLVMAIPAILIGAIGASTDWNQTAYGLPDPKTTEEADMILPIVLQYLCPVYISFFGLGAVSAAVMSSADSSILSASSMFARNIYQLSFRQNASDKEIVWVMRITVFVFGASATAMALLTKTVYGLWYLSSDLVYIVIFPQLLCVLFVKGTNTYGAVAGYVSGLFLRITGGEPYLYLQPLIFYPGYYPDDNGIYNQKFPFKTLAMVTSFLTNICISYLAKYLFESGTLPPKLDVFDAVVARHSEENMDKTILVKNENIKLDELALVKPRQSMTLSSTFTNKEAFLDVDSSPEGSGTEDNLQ

COX2 (h) = molecular target: T5, COX2 (h) (Homo sapiens, UniProt P35354); test: enzyme assay; assay type: biochemical; details: 1.0E-06 M
T5 construct: Cerep (contract assay); host or cells: Sf9 cells
T5 sequence (P35354 18-604): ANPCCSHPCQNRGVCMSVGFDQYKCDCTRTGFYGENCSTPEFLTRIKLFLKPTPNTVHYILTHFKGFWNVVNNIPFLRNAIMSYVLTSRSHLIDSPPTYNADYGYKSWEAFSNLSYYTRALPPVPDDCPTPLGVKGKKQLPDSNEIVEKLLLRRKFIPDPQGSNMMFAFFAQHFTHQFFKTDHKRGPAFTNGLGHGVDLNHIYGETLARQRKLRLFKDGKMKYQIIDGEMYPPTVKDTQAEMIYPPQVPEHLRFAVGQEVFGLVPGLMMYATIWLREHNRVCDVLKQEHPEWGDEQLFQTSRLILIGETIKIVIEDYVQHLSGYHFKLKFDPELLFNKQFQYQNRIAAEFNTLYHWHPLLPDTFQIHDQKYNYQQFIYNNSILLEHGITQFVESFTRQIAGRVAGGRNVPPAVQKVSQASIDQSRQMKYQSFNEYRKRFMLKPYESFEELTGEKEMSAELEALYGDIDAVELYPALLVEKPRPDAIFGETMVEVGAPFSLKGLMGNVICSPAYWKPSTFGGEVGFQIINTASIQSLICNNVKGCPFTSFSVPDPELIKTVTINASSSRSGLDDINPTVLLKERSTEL

ZAP70 kinase (h) = molecular target: T6, ZAP70 kinase (h) (Homo sapiens, UniProt P43403); test: biochemical; details: 1.0E-06 M
T6 construct: host or cells: insect cells
T6 sequence (P43403 1-619): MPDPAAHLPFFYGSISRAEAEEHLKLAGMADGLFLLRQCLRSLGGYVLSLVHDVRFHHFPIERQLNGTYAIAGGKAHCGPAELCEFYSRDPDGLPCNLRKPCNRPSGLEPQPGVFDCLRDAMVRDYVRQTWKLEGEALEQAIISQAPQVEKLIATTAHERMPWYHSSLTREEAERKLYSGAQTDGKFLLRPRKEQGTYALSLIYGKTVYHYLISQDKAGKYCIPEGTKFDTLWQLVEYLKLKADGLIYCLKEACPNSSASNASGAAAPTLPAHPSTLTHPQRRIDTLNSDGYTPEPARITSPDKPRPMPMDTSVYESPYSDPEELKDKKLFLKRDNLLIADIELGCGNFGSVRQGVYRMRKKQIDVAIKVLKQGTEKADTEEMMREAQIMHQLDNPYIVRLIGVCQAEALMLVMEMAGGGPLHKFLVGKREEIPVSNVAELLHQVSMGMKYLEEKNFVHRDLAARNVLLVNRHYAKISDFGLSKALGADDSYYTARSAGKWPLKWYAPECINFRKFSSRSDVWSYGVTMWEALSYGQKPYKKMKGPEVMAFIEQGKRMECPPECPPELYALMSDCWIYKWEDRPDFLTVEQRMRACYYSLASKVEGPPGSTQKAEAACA

TRPC6 = TRPC6 (Homo sapiens, UniProt Q9Y210); test: cell-based
Chain of TRPC6 (Q9Y210 whole entry, species assumed): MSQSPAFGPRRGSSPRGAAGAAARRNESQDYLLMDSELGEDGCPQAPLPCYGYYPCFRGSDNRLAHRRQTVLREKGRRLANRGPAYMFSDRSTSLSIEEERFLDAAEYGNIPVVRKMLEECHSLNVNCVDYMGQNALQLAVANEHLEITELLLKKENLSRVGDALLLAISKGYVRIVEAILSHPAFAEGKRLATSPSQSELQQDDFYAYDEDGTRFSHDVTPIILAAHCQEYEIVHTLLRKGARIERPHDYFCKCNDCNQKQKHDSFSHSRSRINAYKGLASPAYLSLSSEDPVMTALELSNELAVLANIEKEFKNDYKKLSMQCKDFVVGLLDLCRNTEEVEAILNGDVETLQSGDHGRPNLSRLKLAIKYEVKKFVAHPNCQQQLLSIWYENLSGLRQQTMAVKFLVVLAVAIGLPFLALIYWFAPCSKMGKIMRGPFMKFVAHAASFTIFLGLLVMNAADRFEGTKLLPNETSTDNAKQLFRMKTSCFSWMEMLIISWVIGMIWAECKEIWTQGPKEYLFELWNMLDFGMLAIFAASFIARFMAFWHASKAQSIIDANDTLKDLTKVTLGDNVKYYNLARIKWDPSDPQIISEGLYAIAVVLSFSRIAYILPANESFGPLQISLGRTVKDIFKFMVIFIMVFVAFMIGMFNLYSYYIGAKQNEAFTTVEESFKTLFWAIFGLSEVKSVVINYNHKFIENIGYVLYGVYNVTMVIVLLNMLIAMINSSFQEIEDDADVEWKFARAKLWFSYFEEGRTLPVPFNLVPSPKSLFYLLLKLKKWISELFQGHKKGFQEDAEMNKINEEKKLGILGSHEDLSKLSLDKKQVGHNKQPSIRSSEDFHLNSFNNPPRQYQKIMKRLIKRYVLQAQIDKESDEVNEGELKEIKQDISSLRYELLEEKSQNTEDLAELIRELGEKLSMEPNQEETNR

T3 sequence (P41968 whole entry): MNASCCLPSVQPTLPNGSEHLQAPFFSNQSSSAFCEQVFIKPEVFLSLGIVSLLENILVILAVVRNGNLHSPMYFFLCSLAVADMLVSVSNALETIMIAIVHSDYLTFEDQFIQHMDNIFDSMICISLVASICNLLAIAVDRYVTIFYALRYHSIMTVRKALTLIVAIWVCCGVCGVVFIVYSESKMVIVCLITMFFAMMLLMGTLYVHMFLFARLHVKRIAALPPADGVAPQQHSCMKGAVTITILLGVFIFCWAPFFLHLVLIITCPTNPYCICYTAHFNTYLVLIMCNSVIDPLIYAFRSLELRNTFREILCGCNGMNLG
T2 sequence (P34972 whole entry): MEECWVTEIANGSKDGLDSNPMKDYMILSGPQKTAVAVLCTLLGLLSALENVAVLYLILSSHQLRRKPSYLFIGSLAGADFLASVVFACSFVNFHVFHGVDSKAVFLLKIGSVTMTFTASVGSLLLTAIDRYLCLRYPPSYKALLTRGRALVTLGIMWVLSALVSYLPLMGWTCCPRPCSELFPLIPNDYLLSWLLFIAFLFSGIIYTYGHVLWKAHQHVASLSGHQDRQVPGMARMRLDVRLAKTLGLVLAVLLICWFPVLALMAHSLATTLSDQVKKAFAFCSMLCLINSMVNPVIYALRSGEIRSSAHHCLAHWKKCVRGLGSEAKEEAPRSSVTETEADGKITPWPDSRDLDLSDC

Cn1c(=O)n(CCCO)c(=O)c2c1nc(Oc1cccc(OC(F)(F)F)c1)n2Cc1ccc(Cl)cc1 [HC-608]
inhibition at 1 µM (A3 (h); read-out: % Inhibition 1st): 28.3%
inhibition at 1 µM (A3 (h); read-out: % Inhibition 2nd): 36.4%
inhibition at 1 µM (A3 (h); read-out: % Inhibition Mean): 32.3%
% Inhibition 1st (α1 (non-selective)): -2.8%
% Inhibition 2nd (α1 (non-selective)): 1.1%
% Inhibition Mean (α1 (non-selective)): -0.8%
inhibition at 1 µM (CB2 (h); read-out: % Inhibition 1st): 16.6%
inhibition at 1 µM (CB2 (h); read-out: % Inhibition 2nd): 25.1%
inhibition at 1 µM (CB2 (h); read-out: % Inhibition Mean): 20.9%
inhibition at 1 µM (MC3 (h); 1.0E-06 M, read-out: % Inhibition 1st): 14.4%
inhibition at 1 µM (MC3 (h); 1.0E-06 M, read-out: % Inhibition 2nd): 15.3%
inhibition at 1 µM (MC3 (h); read-out: % Inhibition Mean): 14.8%
inhibition at 1 µM ([1]; read-out: % Inhibition 1st): -5.8%
inhibition at 1 µM ([1]; read-out: % Inhibition 2nd): -1.9%
inhibition at 1 µM ([1]; read-out: % Inhibition Mean): -3.9%
inhibition at 1 µM (COX2 (h); read-out: % Inhibition 1st): -5.6%
inhibition at 1 µM (COX2 (h); read-out: % Inhibition 2nd): 11.8%
inhibition at 1 µM (COX2 (h); read-out: % Inhibition Mean): 3.1%
inhibition at 1 µM (ZAP70 kinase (h); read-out: % Inhibition 1st): -1.6%
inhibition at 1 µM (ZAP70 kinase (h); read-out: % Inhibition 2nd): -3%
inhibition at 1 µM (ZAP70 kinase (h); read-out: % Inhibition Mean): -2.3%
IC50 (TRPC6): > 1640 nM
